Ends that are not written are not given here.
Assays:
Test in all cases: BRET assay using TRUPATH biosensors, Gi activation of ADGRF1
Assay type in all cases: cell-based
[1] = molecular target: T1, ADGRF1 (Homo sapiens, UniProt Q5T601, G807W); conditions: ADGRF1 G807^6.56bW, n = 3
T1 construct: Flag (N); expressed in transfected cells; host or cells: HEK293F
Outline: (§1)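 HEK293F cells transiently co-transfected with wild-type or mutant receptor, Gα-RLuc8 (GαsS for Gs, Gαi1 for Gi), Gβ3 and Gγ9-GFP2 at 2:1:1:1. After 30 min at 37 °C and coelenterazine 400a, cells stimulated with synthetic stalk peptide. BRET = GFP2/RLuc8 emission, last of five readings.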

[2] = molecular target: T2, ADGRF1 (Homo sapiens, UniProt Q5T601, G831A); conditions: ADGRF1 G831^7.50bA, n = 3
T2 construct: Flag (N); expressed in transfected cells; host or cells: HEK293F
Outline: as §1

[3] = molecular target: T3, ADGRF1 (Homo sapiens, UniProt Q5T601, K791A); conditions: ADGRF1 K791^6.40bA
T3 construct: Flag (N); expressed in transfected cells; host or cells: HEK293F
T3 sequence (Q5T601 20-910 K791A): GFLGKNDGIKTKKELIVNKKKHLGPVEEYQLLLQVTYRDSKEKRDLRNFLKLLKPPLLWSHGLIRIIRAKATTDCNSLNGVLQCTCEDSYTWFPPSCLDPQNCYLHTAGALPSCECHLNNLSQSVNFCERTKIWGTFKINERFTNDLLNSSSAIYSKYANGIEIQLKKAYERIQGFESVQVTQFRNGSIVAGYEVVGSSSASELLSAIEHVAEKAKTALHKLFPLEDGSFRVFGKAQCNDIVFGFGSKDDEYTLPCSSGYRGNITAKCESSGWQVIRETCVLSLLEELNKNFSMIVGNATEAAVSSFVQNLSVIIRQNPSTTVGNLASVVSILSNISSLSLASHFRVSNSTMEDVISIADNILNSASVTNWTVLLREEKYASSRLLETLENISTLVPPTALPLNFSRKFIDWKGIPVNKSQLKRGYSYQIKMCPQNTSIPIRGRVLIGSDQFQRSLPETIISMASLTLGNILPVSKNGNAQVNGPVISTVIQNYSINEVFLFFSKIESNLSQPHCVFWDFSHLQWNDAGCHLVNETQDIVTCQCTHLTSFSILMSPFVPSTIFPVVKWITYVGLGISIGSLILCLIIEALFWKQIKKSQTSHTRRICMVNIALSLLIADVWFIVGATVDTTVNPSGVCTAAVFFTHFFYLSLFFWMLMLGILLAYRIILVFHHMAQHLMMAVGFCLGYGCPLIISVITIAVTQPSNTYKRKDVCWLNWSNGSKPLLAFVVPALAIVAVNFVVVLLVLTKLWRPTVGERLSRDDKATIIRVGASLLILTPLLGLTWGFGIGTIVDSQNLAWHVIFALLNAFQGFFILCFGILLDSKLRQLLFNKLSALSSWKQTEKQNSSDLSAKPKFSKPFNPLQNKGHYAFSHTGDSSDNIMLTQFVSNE
Outline: as §1

[4] = molecular target: T4, ADGRF1 (Homo sapiens, UniProt Q5T601, L681A); conditions: ADGRF1 L681^3.53bA
T4 construct: Flag (N); expressed in transfected cells; host or cells: HEK293F
Outline: as §1

[5] = molecular target: T5, ADGRF1 (Homo sapiens, UniProt Q5T601, M627A); conditions: ADGRF1 M627^2.50bA
T5 construct: Flag (N); expressed in transfected cells; host or cells: HEK293F
Outline: as §1

[6] = molecular target: T6, ADGRF1 (Homo sapiens, UniProt Q5T601, W804A); conditions: ADGRF1 W804^6.53bA
T6 construct: Flag (N); expressed in transfected cells; host or cells: HEK293F
Outline: as §1

[7] = molecular target: T7, ADGRF1 (Homo sapiens, UniProt Q5T601, Y668A); conditions: ADGRF1 Y668^3.40bA
T7 construct: Flag (N); expressed in transfected cells; host or cells: HEK293F
Outline: as §1

[8] = molecular target: T8, ADGRF1 (Homo sapiens, UniProt Q5T601, Y684A); conditions: ADGRF1 Y684^3.56bA
T8 construct: Flag (N); expressed in transfected cells; host or cells: HEK293F
Outline: as §1

[9] = n = 3, read-out: pEC50 (mean ± s.e.m.) (converted)

T6 sequence (Q5T601 20-910 W804A): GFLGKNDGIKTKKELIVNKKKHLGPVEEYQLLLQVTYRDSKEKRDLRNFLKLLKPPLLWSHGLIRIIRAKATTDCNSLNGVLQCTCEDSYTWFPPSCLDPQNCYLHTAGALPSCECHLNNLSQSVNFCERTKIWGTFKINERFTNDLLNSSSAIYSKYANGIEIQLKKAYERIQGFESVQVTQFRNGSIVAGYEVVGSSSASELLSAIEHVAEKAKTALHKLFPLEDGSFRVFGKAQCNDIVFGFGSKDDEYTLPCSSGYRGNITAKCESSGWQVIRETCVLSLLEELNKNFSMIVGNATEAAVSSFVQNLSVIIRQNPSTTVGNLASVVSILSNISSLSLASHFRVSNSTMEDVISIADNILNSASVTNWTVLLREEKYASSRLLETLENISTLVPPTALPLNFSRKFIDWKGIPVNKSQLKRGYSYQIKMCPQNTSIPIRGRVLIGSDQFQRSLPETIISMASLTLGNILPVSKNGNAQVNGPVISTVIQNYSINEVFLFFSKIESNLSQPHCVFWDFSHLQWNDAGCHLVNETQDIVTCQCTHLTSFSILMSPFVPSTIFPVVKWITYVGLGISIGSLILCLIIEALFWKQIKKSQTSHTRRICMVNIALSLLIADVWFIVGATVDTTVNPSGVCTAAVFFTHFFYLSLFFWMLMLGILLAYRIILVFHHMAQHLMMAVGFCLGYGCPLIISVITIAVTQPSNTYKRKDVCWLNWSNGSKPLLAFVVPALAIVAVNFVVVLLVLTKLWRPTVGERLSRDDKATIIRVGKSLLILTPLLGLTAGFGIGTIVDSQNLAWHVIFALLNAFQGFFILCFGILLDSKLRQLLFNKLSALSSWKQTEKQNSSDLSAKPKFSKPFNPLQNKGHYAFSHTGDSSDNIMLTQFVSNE
T4 sequence (Q5T601 20-910 L681A): as the sequence (Q5T601 20-910 W804A) above, with L662A, A785W counted along it
T5 sequence (Q5T601 20-910 M627A): as the sequence (Q5T601 20-910 W804A) above, with M608A, A785W counted along it
T1 sequence (Q5T601 20-910 G807W): as the sequence (Q5T601 20-910 W804A) above, with A785W, G788W counted along it
T8 sequence (Q5T601 20-910 Y684A): as the sequence (Q5T601 20-910 W804A) above, with Y665A, A785W counted along it
T2 sequence (Q5T601 20-910 G831A): as the sequence (Q5T601 20-910 W804A) above, with A785W, G812A counted along it
T7 sequence (Q5T601 20-910 Y668A): as the sequence (Q5T601 20-910 W804A) above, with Y649A, A785W counted along it

EC50 [1]: 1520 nM | Emax (mean ± s.e.m.) [1]: 101 ± 13 % of WT | EC50 [2]: 1040 nM | Emax (mean ± s.e.m.) [2]: 97 ± 15 % of WT | Emax (mean ± s.e.m.) ([3]; n = 3): 102 ± 13 % of WT | EC50 [3, 9]: 102 nM | Emax (mean ± s.e.m.) ([4]; n = 3): 59 ± 10 % of WT | EC50 [4, 9]: 120 nM | Emax (mean ± s.e.m.) ([5]; n = 3): 113 ± 8 % of WT | EC50 [5, 9]: 692 nM | Emax (mean ± s.e.m.) ([6]; n = 4): 86 ± 19 % of WT | EC50 ([6]; n = 4, read-out: pEC50 (mean ± s.e.m.) (converted)): 977 nM | Emax (mean ± s.e.m.) ([7]; n = 3): 123 ± 17 % of WT | EC50 [7, 9]: 355 nM | Emax (mean ± s.e.m.) ([8]; n = 3): 115 ± 17 % of WT | EC50 [8, 9]: 813 nM
Sequence: TSFSILMSPFVP [pF1]
